How the values were obtained:
Type in all cases: cell-based, human
[1] = system: RS4;11 and SEM cells; test: Mitochondrial transmembrane potential, JC-1; conditions: CP 2.5 μM
Procedure: To determine whether the apoptotic stimuli involved mitochondria alteration, we examined the mitochondrial transmembrane potential (ΔΨmt) by means of the fluorescence dye JC-1.
(§1) FIGURE 2 CP induces caspase-dependent apoptosis without mitochondria involvement (A) Assessment of mitochondrial membrane potential (ΔΨmt) after treatment of RS4;11 and SEM cells with CP (2.5 μM) for the indicated times. Cells were stained with the fluorescent probe JC-1. Data are represented as mean ± S.E.M. of three independent experiments. (B) Flow cytometric analysis of RS4;11 and SEM cells treated with CP (2.5 μM) for 24 h showing cytochrome c labeled with a monoclonal antibody conjugated to FITC. Representative image of three experiments with similar results. (C) Cells were incubated with CP 2.5 μM and 5 μM in the presence or absence of the pan-caspase inhibitor z-VAD.fmk (100 μM). Cell viability was determined after 48 h by MTT assay. […]
The mitochondrial membrane potential was measured with the lipophilic cation 5,5',6,6'-tetrachlo-1,1',3,3'-tetraethylbenzimidazolyl-carbocyanine (JC-1) (Life Technologies, Italy) as previously described. Cytochrome c release was analyzed by flow cytometry using a commercial kit (Innocyte flow cytometric cytochrome c release kit, Calbiochem, Italy) following the manufacturer's instructions.

[2] = system: CHOP; test: Western blot, ER stress marker CHOP; conditions: SEM and RS4;11, CP 2.5 μM
Procedure: (§2) Moreover we found an increase in CHOP expression starting from 3 h of CP treatment. […] Whilst GRP78, due to its chaperon activity, exerts a protective function, CHOP promotes ER-stress cell death, thus the rapid activation of pro-death signals and the late activation of pro-survival chaperone GRP78 could explain the commitment toward apoptosis induced by CP. Moreover, in unresolvable stress conditions, an increased CHOP expression has been correlated to the induction of the expression of many apoptotic genes and to the down-regulation prosurvival genes, such as Bcl-2 [30].
(§3) FIGURE 4 CP induces ER stress Western Blot analysis showing expression of GRP78 and CHOP in SEM (A) and in RS4;11 (B) cells. Cells were treated with CP 2.5 μM for the indicated times. (C) PCR analysis showing the induction of XBP1 splicing in SEM and RS4;11 cells. Cells were treated with CP (2.5 μM) or Tunicamycin (2 μg/ml) as positive control for 12 h.
(§4) Cells were treated with CP and, after different times, were collected, centrifuged and washed with ice cold phosphate-buffered saline (PBS). The pellet was then resuspended in lysis buffer as described. The protein concentration in the supernatant was determined using the BCA protein assay (Pierce, Italy). […]

[3] = system: RS4;11 and SEM cells; test: Cell cycle distribution by flow cytometry (PI); conditions: 24 h, different concentrations
Procedure: FIGURE 1 CP uptake and effects on cell cycle and apoptosis induction A) RS4;11, SEM, THP1, Jurkat cell lines and healthy PBMC were incubated with 6.25, 12.5 and 25 μM of CP for 24 h. The intracellular accumulation of CP was detected by GF-AAS analysis. B) SEM and RS4;11 cells were treated with the indicated concentrations of CP for 24 h, cell cycle distribution and Sub-G1 contents were analyzed by flow cytometry after cell staining with PI. The percentages of each phase of the cell cycle (G1, S, G2/M) were calculated on living cells whereas the percentages of cells with hypodiploid DNA content peak (subG1) was referred to cell population characterized by the appearance of subG1 peak. C) SEM and RS4;11 cells were incubated with 2.5 μM CP for the indicated times and analyzed by flow cytometry after double staining with Annexin-V-FITC and PI. Data are represented as mean ± S.E.M. of three independent experiments.
The effects of different concentrations of CP on cell cycle progression were examined in RS4;11 and SEM cells after 24 h of treatment.
5×10^5 RS4;11 and SEM cells in exponential growth were treated with different concentrations of CP for different times. After the incubation, cells were collected, centrifuged and fixed with ice-cold ethanol (70%) and stained with PI as described previously. DNA histograms were analyzed using Multicycle for Windows (Phoenix Flow Systems)

[4] = system: GRP78; test: Western blot, ER stress marker GRP78
Procedure: as §2, §3, §4

[5] = system: caspase-12; test: Western blot, cleaved caspase-12
Procedure: as §1, with “assay. Data are represented as mean ± S.E.M. of three independent experiments performed in triplicate. *p<0.01 vs CP alone. (D) Western blot analysis of Bcl-2, cleaved caspase-12, caspase-9, cleaved caspase-7, caspase-3 and PARP after treatment of SEM and RS4;11 cells with CP (2.5 μM) for the indicated times. To confirm equal protein loading, each membrane was stripped and reprobed with anti-β-actin antibody.” for “assay.”
(§5) Cells were treated with CP and, after different times, were collected, centrifuged and washed with ice cold phosphate-buffered saline (PBS). […] The protein concentration in the supernatant was determined using the BCA protein assay (Pierce, Italy). […]

[6] = system: caspase-9, caspase-3 and -7; test: Western blot, caspase-9, cleaved caspase-7, caspase-3 and PARP; conditions: SEM and RS4;11, CP 2.5 μM
Procedure: as §1, with “assay. Data are represented as mean ± S.E.M. of three independent experiments performed in triplicate. *p<0.01 vs CP alone. (D) Western blot analysis of Bcl-2, cleaved caspase-12, caspase-9, cleaved caspase-7, caspase-3 and PARP after treatment of SEM and RS4;11 cells with CP (2.5 μM) for the indicated times. To confirm equal protein loading, each membrane was stripped and reprobed with anti-β-actin antibody.” for “assay.”
as §5

Q: For F[P-](F)(F)(F)(F)F.OCP(CO)CO.OCP(CO)CO.OCP(CO)CO.OCP(CO)CO.[Cu+] [CP, [Cu(thp)4][PF6]], which “percentage of cells with low ΔΨmt” value [1] is on record?
A: The value was “slightly increased, only after 12 h”.

Q: What about the “onset of increase in CHOP expression” value [2] of the same compound?
A: The value was at least 3 h.

Q: And the “cell population with hypodiploid DNA content peak (subG1)” value [3]?
A: Its value is “concentration-dependent increase”.

Q: What about the “effect on cell cycle progression” value [3] of the same compound?
A: The value was “did not affect cell cycle”.

Q: And the “time of remarkable increase of GRP78 expression” value ([4]; RS4;11, CP 2.5 μM)?
A: Its value is 12 h.

Q: What about the “time of remarkable increase of GRP78 expression” value ([4]; SEM, CP 2.5 μM) of the same compound?
A: The value was 6 h.

Q: What about the “onset of caspase-12 activation” value ([5]; RS4;11, CP 2.5 μM) of the same compound?
A: The value was at least 1.5 h.

Q: And the “onset of caspase-12 activation” value ([5]; SEM, CP 2.5 μM)?
A: Its value is at least 3 h.

Q: And the “onset of caspase-9 activation and cleavage of caspase-3 and -7” value [6]?
A: Its value is at least 6 h.

From publication PMC4171606, “A novel copper(I) complex induces ER-stress-mediated apoptosis and sensitizes B-acute lymphoblastic leukemia cells to chemotherapeutic agents” (Oncotarget, 2014)
